Experimental data reported in patent US20060292158A1, “Method for the treatment of cancer using a novel pharmaceutical composition containing at least one dolastatin 10 derivative” (priority 2004, published 2006).
Read-outs that look alike come from different tables or passages of the source.

Tests used:
[1] = tested on: KPL-4 human breast carcinoma xenograft; assay: Antitumor activity in KPL-4 orthotopic xenograft in athymic nude mice, combination with pertuzumab (Example 2); type: in vivo; conditions: monotherapy 3, 4 or 6 mg/kg; day 21
Method: The KPL-4 human breast carcinoma cell line was kindly donated by Prof. Kurebayashi, Kawasaki Medical Center. The cells were cultured in Dulbecco's MEM (Sigma Chemical Co.) supplemented with 5% (v/v) fetal bovine serum (Roche Diagnostics).
One hundred (100) 5-week-old female athymic nude mice (BALB/c nu/nu) were purchased from Charles River Japan, Inc. (Yokohama, Japan). The mice were housed in an air-conditioned room (temperature 22±2° C., relative humidity 55±10%) under 12 h light/dark cycles. The mice were given sterilized CE-2 and tap water with 25μg/mL gentamycin ad libitum. […]
The In vivo evaluation procedure for anticancer drugs was based on methods described by Plowman, et al. (1997) for xenograft models. […] The tumor volume and body weight of each mouse were measured twice a week. […] One week after the final injection, tumor growth inhibition (TGI) was calculated using the formula (1-T/C)×100 (%), where T (treated group) and C (control group) represent the mean tumor volume change. ED50 values were calculated from values of tumor growth inhibition on day 21 using the XL fit program. […]
Packaged software (SAS preclinical package version 5.0, SAS Institute Japan, Ltd.) was used for the statistical analysis. […] ED50s were calculated from values of tumor growth inhibition percentage using XL fit program #509 (MS Excel Add-In: XLfit3 Version 3.0.5 Build 12, ID Business Solutions Ltd.)

[2] = tested on: HT-29 human colorectal adenocarcinoma xenograft; type: in vivo; conditions: day 31
Method: The HT-29 human colorectal adenocarcinoma cell line was purchased from American Type Culture Collection (Rockville, MD, U.S.A.). The cells were cultured in McCoy's 5a medium (Sigma-Aldrich Corporation, MO, U.S.A.) supplemented with 10% (v/v) fetal bovine serum (Roche Diagnostics KK, Tokyo, Japan).
Sixty of 5-week-old male athymic nude mice (BALB/c nu/nu) were purchased from Charles River Japan, Inc. (Yokohama, Japan). All mice were kept for 9 days in the animal facility of Kamakura Research Laboratories of Chugai Pharmaceutical Co., Ltd. before subjection to the experiment.
Capecitabine was dissolved by the 40 milli mol/L citrate buffered-5% Gum arabic solution (pH 6.0; Chugai Pharmaceutical Co., Ltd.).
The in vivo evaluation procedure for anticancer drugs was based on the methods described by Plowman, et al. (1997) for xenograft models. See, “Anticancer Drug Development Guide: Preclinical Screening, Clinical Trials, and Approval, Teicher B (ed) pp. 101-125, specifically Chap. 6, “Human Tumor Xenograft Models in NCI Drug Development”, hereby incorporated by reference. A single cell suspension of HT-29 (1.1×10^7 cells per mouse) was inoculated subcutaneously into the right flank of each mouse. The tumor volume was estimated by using the equation ab^2/2, where a and b represent tumor length and width, respectively. Mice bearing tumors of between 172 and 282 mm^3 were selected on day 10 after tumor inoculation and were randomly divided into 7 groups, consisting of 6 mice each. Mean tumor volume and body weight of the selected mice were 217 mm^3 and 25.0 g respectively. Drug administration was initiated after mice were divided into groups. […] Capecitabine (359 mg/kg or 539 mg/kg) and its vehicle were administered orally. Tumor volume and body weight of each mouse were measured twice a week. […] Tumor growth inhibition was calculated using the equation (1-ΔT/ΔC)×100, where ΔT represents the difference in tumor volume from the initial treatment date of the treated group and ΔC represents the difference in tumor volume from the initial treatment date of the vehicle group.

## CC[C@H](C)[C@@H]([C@@H](CC(=O)N1CCC[C@H]1[C@H](SC)[C@@H](C)C(=O)N(C)CCc1cccc(O)c1)OC)N(C)C(=O)[C@@H](NC(=O)[C@H](C(C)C)N(C)C)C(C)C [compound of formula (I-A), N-[1-({1-sec-Butyl-4-[2-(2-{[2-(3-hydroxy-phenyl)-ethyl]-methyl-carbamoyl}-1-methylsulfanyl-propyl)-pyrrolidin-1-yl]-2-methoxy-4-oxo-butyl}-methyl-carbamoyl)-2-methyl-propyl]-2-dimethylamino-3-methyl-butyramide]
[1]
  volume of tumor in comparison with control: decreased strongly
[2]; 3 mg/kg (1/2 MTD) i.v. weekly x3
  reduction of tumor growth: 76%
[2]; 4 mg/kg (2/3 MTD) i.v. weekly x3
  reduction of tumor growth: 101%
